These results are taken from US8183216B2, “Nucleoside derivatives as inhibitors of viral polymerases” (Istituto Di Ricerche Di Biologia Molecolare P. Angeletti …, priority 2007, dated 2012).

Each structure is given as a SMILES string. Bounds are passed on as bounds.

For the first assay, the target named is T1, HCV NS5B RNA-dependent RNA polymerase (Hepatitis C virus genotype 1b, UniProt P26663).
T1 construct: RNA-dependent RNA polymerase (NS5B) of the hepatitis C virus (HCV)
T1 sequence (P26663 2420-2955): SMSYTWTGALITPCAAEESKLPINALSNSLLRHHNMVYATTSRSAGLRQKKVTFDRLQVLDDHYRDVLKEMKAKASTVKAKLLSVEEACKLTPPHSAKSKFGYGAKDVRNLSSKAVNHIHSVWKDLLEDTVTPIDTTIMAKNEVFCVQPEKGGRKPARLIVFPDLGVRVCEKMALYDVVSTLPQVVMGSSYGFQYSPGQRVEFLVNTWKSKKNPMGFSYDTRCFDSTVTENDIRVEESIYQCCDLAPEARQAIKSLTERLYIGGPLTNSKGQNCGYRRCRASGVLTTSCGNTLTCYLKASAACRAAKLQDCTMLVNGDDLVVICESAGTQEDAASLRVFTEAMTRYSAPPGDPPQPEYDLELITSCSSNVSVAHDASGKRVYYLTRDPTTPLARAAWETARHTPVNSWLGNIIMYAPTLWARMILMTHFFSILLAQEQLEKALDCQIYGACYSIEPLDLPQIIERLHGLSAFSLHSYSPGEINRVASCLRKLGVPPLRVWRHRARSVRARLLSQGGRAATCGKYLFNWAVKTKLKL
In words: Assay for inhibition of HCV NS5B polymerase (heteromeric RNA template, 3H-UTP incorporation). As to conditions: activity ranges. In kind it is biochemical. The method, then: The effectiveness of the compounds of the present invention as inhibitors of HCV NS5B RNA-dependent RNA polymerase (RdRp) was measured in the following assay.
A. Assay for Inhibition of HCV NS5B Polymerase:
This assay was used to measure the ability of the nucleoside derivatives of the present invention to inhibit the enzymatic activity of the RNA-dependent RNA polymerase (NS5B) of the hepatitis C virus (HCV) on a heteromeric RNA template.
Assay Buffer Conditions: (52.5 μL-total/reaction) • 20 mM Tris, pH 7.5 • 45 mM KCl • 2 mM MgCl2 • 0.01% Triton X-100 • 1 μg BSA, DNase Free • 1 mM DTT • 2 nM DC55-1b.BK or 10 nM DC55-2b.2 • 20 nM heterogeneous template dCoh • UTP 1 uM • ATP 1 uM • CTP 1 uM • GTP 1 uM • 3H-UTP 1,000,000 cpm • 2.5 μl reaction inhibitor compound in H2O
The compounds were tested at various concentrations up to 100 μM final concentration. Nucleoside derivatives were pipetted into wells of a 96-well plate. The enzyme diluted in the reaction buffer was pipetted into the wells and incubated at room temperature for 10 minutes; then the template dCoh was added and incubated for 10 minutes at room temperature. The reaction was initiated by addition of a mixture of nucleotide triphosphates (NTP's), including the radiolabeled UTP, and allowed to proceed at room temperature for 2 hours. Blank samples were done omitting the dCoh template. The reaction was quenched by addition of 50 ul TCA 20% (trichloroacetic acid)/NaPPi 20 mM and the plates were put in ice for 5 minutes. Then, the mixtures were filtered onto Unifilter GF/B 96-well plates (PerkinElmer), washed with TCA 2.5%. P 50 ul/well of scintillator solution (Microscint 20, PerkinElmer) were added and the plates were counted in a scintillator counter.
The percentage of inhibition was calculated according to the following equation: % Inhibition=[1−(cpm in test reaction−cpm in blank)/(cpm in control reaction−cpm in blank)]×100.
Representative compounds were tested in the HCV NS5B polymerase assay and results are reported as IC50 activity ranges in Table B
What is called IC50 is the midpoint of a concentration-inhibition curve. Lower therefore signals greater potency. Take `C[C@@]1(O)[C@H](O)[C@@H](COP(=O)(O)OP(=O)(O)OP(=O)(O)O)O[C@H]1n1cc2c3c(ncnc31)NC(=O)c1ccccc1-2` [Compound 5, 2-[5-O-(hydroxy{[hydroxy(phosphonooxy)phosphoryl]oxy}phosphoryl)-2-C-methyl-beta-D-ribofuranosyl]-2,6-dihydro-7H-2,3,5,6-tetraazadibenzo[cd,h]azulen-7-one]: the IC50 was less than 1000 nM.

Compound `C[C@@]1(O)[C@H](O)[C@@H](COP(=O)(O)OP(=O)(O)OP(=O)(O)O)O[C@H]1n1cc2c3c(ncnc31)NCc1ccccc1-2` [Compound 6, 2-[5-O-(hydroxy{[hydroxy(phosphonooxy)phosphoryl]oxy}phosphoryl)-2-C-methyl-beta-D-ribofuranosyl]-6,7-dihydro-2H-2,3,5,6-tetraazadibenzo[cd,h]azulene] displayed an IC50 of 1000 to 30000 nM.

`C[C@@]1(O)[C@H](O)[C@@H](COP(=O)(O)OP(=O)(O)OP(=O)(O)O)O[C@H]1n1cc2c3c(ncnc31)NCc1sccc1-2` [Compound 7, 2-[5-O-(hydroxy{[hydroxy(phosphonooxy)phosphoryl]oxy}phosphoryl)-2-C-methyl-beta-D-ribofuranosyl]-6,7-dihydro-2H-8-thia-2,3,5,6-tetraazabenzo[cd]cyclopenta[h]azulene] returned a half-maximal inhibitory concentration (IC50) of 1000 to 30000 nM.

Compound `C[C@@]1(O)[C@H](O)[C@@H](COP(=O)(O)OP(=O)(O)OP(=O)(O)O)O[C@H]1n1cc2c3c(ncnc31)NC(=O)c1sccc1-2` [Compound 8, 2-[5-O-(hydroxy{[hydroxy(phosphonooxy)phosphoryl]oxy}phosphoryl)-2-C-methyl-beta-D-ribofuranosyl]-2,6-dihydro-7H-8-thia-2,3,5,6-tetraazabenzo[cd]cyclopenta[h]azulen-7-one] came in with a half-maximal inhibitory concentration (IC50) of less than 1000 nM.

Another assay relates to HuH-7 cells containing a subgenomic HCV Replicon. The experiment in a line: Assay for inhibition of HCV RNA replication (subgenomic replicon, in situ RNase protection SPA). In kind it is cell-based. As to conditions: Hepatitis C virus; HCV replication assay in HuH-7 replicon cells, activity ranges. The method, then:
B. Assay for Inhibition of HCV RNA Replication:
The compounds of the present invention were also evaluated for their ability to affect the replication of Hepatitis C Virus RNA in cultured hepatoma (HuH-7) cells containing a subgenomic HCV Replicon. The details of the assay are described below. This Replicon assay is a modification of that described in V. Lohmann, F. Korner, J-O. Koch, U. Herian, L. Theilmann, and R. Bartenschlager, “Replication of a Sub-genomic Hepatitis C Virus RNAs in a Hepatoma Cell Line,” Science 285:110 (1999).
The assay was an in situ Ribonuclease protection, Scintillation Proximity based-plate assay (SPA). 10,000-40,000 cells were plated in 100-200 μL of media containing 0.8 mg/mL G418 in 96-well cytostar plates (Amersham). Compounds were added to cells at various concentrations up to 100 μM in 1% DMSO at time 0 to 18 h and then cultured for 24-96 h. Cells were fixed (20 min, 10% formalin), permeabilized (20 min, 0.25% Triton X-100/PBS) and hybridized (overnight, 50° C.) with a single-stranded ^33P RNA probe complementary to the (+) strand NS5B (or other genes) contained in the RNA viral genome. Cells were washed, treated with RNAse, washed, heated to 65° C. and counted in a Top-Count Inhibition of replication was read as a decrease in counts per minute (cpm).
Human HuH-7 hepatoma cells, which were selected to contain a subgenomic replicon, carry a cytoplasmic RNA consisting of an HCV 5′ non-translated region (NTR), a neomycin selectable marker, an EMCV IRES (internal ribosome entry site), and HCV non-structural proteins NS3 through NS5B, followed by the 3′ NTR.
Representative compounds were tested in the HCV replication assay and results are reported as EC50 activity ranges in Table C
The term EC50 denotes the midpoint of the concentration-response curve. Low values mean a more potent agent, high ones a less potent agent. For the compound `CC1(O)C(n2cc3c4c(ncnc42)NC(=O)c2sccc2-3)O[C@H](CO)[C@H]1O` (single isomer, unassigned) [Compound 3, 2-(2-C-methyl-beta-D-ribofuranosyl)-2,6-dihydro-7H-8-thia-2,3,5,6-tetraazabenzo[CD]cyclopenta[H]azulen-7-one], the EC50 is less than 30 µM.

Compound `CC1(O)C(n2cc3c4c(ncnc42)NCc2sccc2-3)O[C@H](CO)[C@H]1O` (single isomer, unassigned) [Compound 4, 2-(2-C-methyl-beta-D-ribofuranosyl)-6,7-dihydro-2H-8-thia-2,3,5,6-tetraazabenzo[CD]cyclopenta[H]azulene] yielded an EC50 of less than 30 µM.

`C[C@@]1(O)[C@H](O)[C@@H](CO)O[C@H]1n1cc2c3c(ncnc31)NC(=O)c1ccccc1-2` [Compound 1, 2-(2-C-methyl-beta-D-ribofuranosyl)-2,6-dihydro-7H-2,3,5,6-tetraazadibenzo[C,D,H]azulen-7-one] showed an EC50 of less than 30 µM.

In turn, `C[C@@]1(O)[C@H](O)[C@@H](CO)O[C@H]1n1cc2c3c(ncnc31)NCc1ccccc1-2` [Compound 2, 2-(2-C-methyl-beta-D-ribofuranosyl)-6,7-dihydro-2H-2,3,5,6-tetraazadibenzo[cd,h]azulene] showed an EC50 of 30 to 50 µM.
